Data on one molecule can be found in EP0687469A2, “Anti-arrhythmic 3,7-diazabicyclo (3,3,1)nonane compounds” (Kali-Chemie Pharma GmbH, priority 1994, dated 1995).

In assay [1] the test system is transienter Auswärtsstrom Ito. Nature of the assay: voltage clamp measurement of ion currents in isolated heart muscle cells (Ito). In kind it is cell-based, Ratten. Conditions: read-out: Blockade von Ionenströmen in % des Vorwerts transienter Auswärtsstrom Ito. An excerpt:
(§1) Die Experimente wurden mit der Spannungsklemmmethode an isolierten Herzmuskelzellen von Meerschweinchen und Ratten durchgeführt. Hierbei wurden die Messungen des Ito an Zellen von Rattenherzen und die Messungen des Ik an Zellen von Meerschweinchenherzen durchgeführt. Die Herzen wurden mit proteolytischen Enzymen (Collagenase) perfundiert, um das Bindegewebe zu lockern. Anschließend wurde das Gewebe mechanisch zerkleinert und sodann erfolgte eine weitere Vereinzelung der Zellen in einer Nährlösung im Schüttelbad. Durch anschließendes Zentrifugieren wurde eine Suspension von Herzmuskelzellen erhalten. Bei der angewendeten Spannungsklemmethode zur Messung der Membranströme wird mittels einer Mikroelektrode (in Form einer mit Elektrolytlösung gefüllten Glaskapillare) das Zellinnere mit einem Verstärker verbunden, der die Membranspannung vorgeben kann. Fließt nun ein Ionenstrom durch die Membran (= Öffnung des Ionenkanalproteins) und verschiebt die Membranspannung, kompensiert der Verstärker diese Verschiebung durch einen Gegenstrom, d. h. die Spannung ist sozusagen festgeklemmt. Der gemessene Gegenstrom entspricht in seinem zeitlichen Verlauf dem physiologischen Ionenstrom mit umgekehrtem Vorzeichen. Die Aktivierung der verschiedenen Ionenströme in der Zellmembran hängt charakteristisch von Spannung und Zeit ab. […]

Assay [2] concerns verz.gleichr. Auswärtsstrom Ik. Nature of the assay: voltage clamp measurement of ion currents in isolated heart muscle cells (Ik). The conditions noted are these: read-out: Blockade von Ionenströmen in % des Vorwerts verz.gleichr. Auswärtsstrom Ik. In kind it is cell-based, Meerschweinchen.
Source text: as §1

Structures are written as SMILES.

For `CC(C)CN1CC2CN(C(C)C)CC(C1)C21CCCCC1` [Bertosamil, N-Isobutyl-N'-isopropyl-9,9-pentamethylen-3,7-diazabicyclo[3,3,1]nonan], the inhibition at 1 µM was 38% in assay [1] and 13% in assay [2].
